Measurements as given in US8815882B2, “Pyrazole aminopyrimidine derivatives as LRRK2 modulators” (Genentech, Inc., priority 2010, dated 2014).
Read-outs that look alike come from different tables or passages of the source.

Molecular target: T1, LRRK2 (Homo sapiens, UniProt Q5S007, G2019S)
T1 construct: purchased Invitrogen PV4882 (lot 567054A)
Experiment: In Vitro LRRK2 Assay (LabChip 3000, fluorescently-labeled peptide substrate, ATP)
Assay type: biochemical
How it was run: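 LRRK2, fluorescent peptide substrate (diluted to 4 μM before mixing), ATP and compound were incubated 2 h in the dark, then stopped. Phosphorylated and unphosphorylated peptide were separated by capillary electrophoresis and quantified by fluorescence. Ki was fitted with a tight-binding equation including enzyme concentration, S and Km; IC50 or percent inhibition were also reported.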

[1] = Table 10, LRRK2 Ki (micromolar), read-out: LRRK2 Ki (KI)
[2] = read-out: LRRK2 Ki (KI), Table 7
[3] = read-out: LRRK2 Ki (KI), Table 8
[4] = Table 9, LRRK2 Ki (micromolar), read-out: LRRK2 Ki (KI)

T1 sequence (Q5S007 whole entry G2019S): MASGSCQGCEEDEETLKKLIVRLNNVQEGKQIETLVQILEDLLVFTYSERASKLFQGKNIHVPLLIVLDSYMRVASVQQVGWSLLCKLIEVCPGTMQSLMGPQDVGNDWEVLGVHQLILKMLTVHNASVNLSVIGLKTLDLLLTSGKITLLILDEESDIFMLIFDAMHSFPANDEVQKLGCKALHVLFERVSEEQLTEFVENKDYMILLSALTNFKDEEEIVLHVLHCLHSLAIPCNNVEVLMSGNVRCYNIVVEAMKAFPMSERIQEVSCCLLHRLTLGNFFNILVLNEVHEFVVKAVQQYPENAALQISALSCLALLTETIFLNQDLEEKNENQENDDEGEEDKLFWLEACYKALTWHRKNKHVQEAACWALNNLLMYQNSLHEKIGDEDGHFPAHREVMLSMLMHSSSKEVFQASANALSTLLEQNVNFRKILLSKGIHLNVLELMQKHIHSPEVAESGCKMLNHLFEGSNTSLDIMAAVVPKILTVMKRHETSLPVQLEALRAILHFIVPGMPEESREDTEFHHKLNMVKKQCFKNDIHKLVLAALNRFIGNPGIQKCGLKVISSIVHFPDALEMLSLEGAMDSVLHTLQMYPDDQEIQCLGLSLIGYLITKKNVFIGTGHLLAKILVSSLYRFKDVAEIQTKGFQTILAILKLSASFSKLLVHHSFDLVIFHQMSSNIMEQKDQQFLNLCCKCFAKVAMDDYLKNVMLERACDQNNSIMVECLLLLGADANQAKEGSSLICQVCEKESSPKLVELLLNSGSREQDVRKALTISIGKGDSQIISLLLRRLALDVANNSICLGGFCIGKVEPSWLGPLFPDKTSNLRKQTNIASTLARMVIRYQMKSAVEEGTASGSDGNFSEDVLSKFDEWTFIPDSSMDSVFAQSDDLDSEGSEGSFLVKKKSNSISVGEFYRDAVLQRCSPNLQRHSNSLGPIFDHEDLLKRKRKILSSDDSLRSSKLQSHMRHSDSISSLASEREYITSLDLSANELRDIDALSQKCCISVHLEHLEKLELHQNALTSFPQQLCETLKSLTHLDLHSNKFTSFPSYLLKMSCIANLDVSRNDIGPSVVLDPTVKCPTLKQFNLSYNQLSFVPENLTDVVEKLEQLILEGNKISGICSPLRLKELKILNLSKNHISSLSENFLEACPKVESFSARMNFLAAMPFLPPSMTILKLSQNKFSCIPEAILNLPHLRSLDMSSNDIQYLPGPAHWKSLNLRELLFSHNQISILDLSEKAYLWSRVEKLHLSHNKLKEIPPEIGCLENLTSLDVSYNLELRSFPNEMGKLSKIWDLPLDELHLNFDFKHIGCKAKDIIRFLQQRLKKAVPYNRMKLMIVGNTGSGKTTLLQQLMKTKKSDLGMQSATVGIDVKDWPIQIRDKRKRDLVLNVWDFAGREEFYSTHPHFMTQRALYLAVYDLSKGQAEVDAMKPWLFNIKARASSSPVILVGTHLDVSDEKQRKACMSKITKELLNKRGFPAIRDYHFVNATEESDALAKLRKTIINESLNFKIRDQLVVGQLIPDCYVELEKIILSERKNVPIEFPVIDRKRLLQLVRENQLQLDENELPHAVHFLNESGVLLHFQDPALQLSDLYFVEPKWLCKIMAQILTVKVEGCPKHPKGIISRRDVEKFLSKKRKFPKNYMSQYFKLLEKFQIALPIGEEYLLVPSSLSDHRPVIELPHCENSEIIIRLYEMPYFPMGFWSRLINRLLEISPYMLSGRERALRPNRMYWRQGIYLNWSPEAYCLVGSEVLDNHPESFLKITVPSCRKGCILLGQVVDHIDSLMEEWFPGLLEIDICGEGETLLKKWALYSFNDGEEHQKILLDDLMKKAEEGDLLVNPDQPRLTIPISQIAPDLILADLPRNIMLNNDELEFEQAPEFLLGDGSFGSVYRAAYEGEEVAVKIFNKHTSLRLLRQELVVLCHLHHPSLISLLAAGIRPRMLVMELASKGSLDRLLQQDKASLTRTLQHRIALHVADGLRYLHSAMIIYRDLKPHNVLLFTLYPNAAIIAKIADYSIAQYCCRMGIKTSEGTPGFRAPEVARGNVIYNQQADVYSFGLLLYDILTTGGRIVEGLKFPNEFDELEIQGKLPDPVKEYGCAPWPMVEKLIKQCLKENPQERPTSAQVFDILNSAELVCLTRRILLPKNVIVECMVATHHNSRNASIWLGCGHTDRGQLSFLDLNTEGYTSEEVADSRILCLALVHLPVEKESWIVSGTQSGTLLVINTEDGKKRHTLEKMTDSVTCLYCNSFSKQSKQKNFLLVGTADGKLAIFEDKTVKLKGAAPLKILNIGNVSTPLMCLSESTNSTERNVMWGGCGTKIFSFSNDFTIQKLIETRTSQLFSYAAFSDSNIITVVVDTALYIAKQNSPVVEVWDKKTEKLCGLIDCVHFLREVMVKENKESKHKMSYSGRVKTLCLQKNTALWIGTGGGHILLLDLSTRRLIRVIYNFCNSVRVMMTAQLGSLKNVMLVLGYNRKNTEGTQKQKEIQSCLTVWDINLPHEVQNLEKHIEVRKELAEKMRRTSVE

CNC(=O)C(C)(C)n1cc(Nc2ncc(C(F)(F)F)c(NC3CC3)n2)c(C)n1 [Example 449, 2-[4-(4-Cyclopropylamino-5-trifluoromethyl-pyrimidin-2-ylamino)-3-methyl-pyrazol-1-yl]-N-methyl-isobutyramide]
Ki [1]: 1.3 nM

COc1nc(Nc2cn(CC(C)(C)O)nc2C)ncc1Cl [Example 23]
Ki [2]: 27 nM

CNc1nc(Nc2cn(-c3ccccc3)nc2C)ncc1Br [Example 109, 5-bromo-N4-methyl-N2-(3-methyl-1-phenyl-1H-pyrazol-4-yl)pyrimidine-2,4-diamine]
Ki [3]: 8.4 nM

CNc1nc(Nc2cnn(C3CCN(CCOC)CC3)c2C)ncc1C(F)(F)F [Example 239, N2-(1-(1-(2-methoxyethyl)piperidin-4-yl)-5-methyl-1H-pyrazol-4-yl)-N4-methyl-5-(trifluoromethyl) pyrimidine-2,4-diamine]
Ki [3]: 6 nM

CNc1nc(Nc2cn(C3CCOCC3)nc2C)ncc1C#N [Example 362, 2-(3-methyl-1-(tetrahydro-2H-pyran-4-yl)-1H-pyrazol-4-ylamino)-4-(methylamino) pyrimidine-5-carbonitrile]
Ki [4]: 86 nM

Cc1nn(S(C)(=O)=O)cc1Nc1ncc(C(F)(F)F)c(NC2CC2)n1 [Example 300, N4-Cyclopropyl-N2-(1-methanesulfonyl-3-methyl-1H-pyrazol-4-yl)-5-trifluoromethyl-pyrimidine-2,4-diamine]
Ki [3]: 0.4 nM

COc1nc(Nc2cn(S(C)(=O)=O)nc2C)ncc1Cl [Example 54, 5-chloro-4-methoxy-N-(3-methyl-1-(methylsulfonyl)-1H-pyrazol-4-yl)pyrimidin-2-amine]
Ki [2]: 7.8 nM

COc1nc(Nc2cnn(C)c2C)ncc1Cl [Example 12, 5-Chloro-N-(1,5-dimethyl-1H-pyrazol-4-yl)-4-methoxy-pyrimidin-2-amine]
Ki [2]: 9.1 nM

CNc1nc(Nc2cn(-c3ccc(C(=O)N(C)C)cc3)nc2C)ncc1C(F)(F)F [Example 164, N,N-dimethyl-4-(3-methyl-4-(4-(methylamino)-5-(trifluoromethyl)pyrimidin-2-ylamino)-1H-pyrazol-1-yl)benzamide]
Ki [3]: 5.7 nM

CNc1nc(Nc2cc(C(=O)N3CCOCC3)nn2C)ncc1Cl [Example 393, (5-(5-chloro-4-(methylamino)pyrimidin-2-ylamino)-1-methyl-1H-pyrazol-3-yl)(morpholino)methanone]
Ki (read-out: LRRK2 Ki given in the example): 160 nM

CNc1nc(Nc2cn([C@@H](C)C(=O)N(C)C)nc2C)ncc1C(F)(F)F [Example 436, (S)-N,N-Dimethyl-2-[3-methyl-4-(4-methylamino-5-trifluoromethyl-pyrimidin-2-ylamino)-pyrazol-1-yl]-propionamide]
Ki [1]: 30.3 nM

CNc1nc(Nc2cnn(-c3ccc(C(=O)N(C)C)cc3)c2C)ncc1C(F)(F)F [Example 156, N,N-dimethyl-4-(5-methyl-4-(4-(methylamino)-5-(trifluoromethyl)pyrimidin-2-ylamino)-1H-pyrazol-1-yl)benzamide]
Ki [3]: 0.3 nM

CNc1nc(Nc2cnn(CC(F)(F)F)c2C)ncc1Br [Example 96, 5-bromo-N4-methyl-N2-(5-methyl-1-(2,2,2-trifluoroethyl)-1H-pyrazol-4-yl)pyrimidine-2,4-diamine]
Ki [3]: 1.1 nM

CNc1nc(Nc2cn(-c3ccc(C#N)cc3)nc2C)ncc1C(F)(F)F [Example 148, 4-(3-methyl-4-(4-(methylamino)-5-(trifluoromethyl)pyrimidin-2-ylamino)-1H-pyrazol-1-yl)benzonitrile]
Ki [3]: 0.3 nM

COc1nc(Nc2cnn(C(C)(C)C#N)c2C)ncc1Cl [Example 72, 2-(4-(5-chloro-4-methoxy-pyrimidin-2-ylamino)-5-methyl-1H-pyrazol-1-yl)-2-methylpropane-nitrile]
Ki [2]: 16 nM

CCNc1nc(Nc2cnn([C@H]3CCCN(C)C3)c2C)ncc1C(F)(F)F [Example 311, N4-Ethyl-N2-[5-methyl-1-((S)-1-methyl-piperidin-3-yl)-1H-pyrazol-4-yl]-5-trifluoromethyl-pyrimidine-2,4-diamine]
Ki [3]: 1.2 nM

CNc1nc(Nc2cnn(C3CCS(=O)(=O)CC3)c2C)ncc1C(F)(F)F [Example 196, N4-methyl-N2-(5-methyl-1-(tetrahydro-2H-1,1-dioxo-thiopyran-4-yl)-1H-pyrazol-4-yl)-5-(trifluoromethyl) pyrimidine-2,4-diamine]
Ki [3]: 47 nM

COc1nc(Nc2cnn(C3CCOCC3)c2C)ncc1Cl [Example 80, (5-Chloro-4-methoxy-pyrimidin-2-yl)-[5-methyl-1-(tetrahydro-pyran-4-yl)-1H-pyrazol-4-yl]-amine]
Ki [2]: 66.3 nM

CNc1nc(Nc2cn(C(C)(C)C(=O)NCC3CC3)nc2C)ncc1C(F)(F)F [Example 427, N-(cyclopropylmethyl)-2-methyl-2-(3-methyl-4-(4-(methylamino)-5-(trifluoromethyl)pyrimidin-2-ylamino)-1H-pyrazol-1-yl)propanamide]
Ki [1]: 52 nM

CNc1nc(Nc2ccnn2C(C)C)ncc1C(F)(F)F [Example 47, N^2-(1-isopropyl-1H-pyrazol-5-yl)-N^4-methyl-5-(trifluoromethyl) pyrimidine-2,4-diamine]
Ki [2]: 112 nM

CCNc1nc(Nc2cn(C3CCN(CC4OCCO4)CC3)nc2C)ncc1C(F)(F)F [Example 88, N^2-[1-(1-[1,3]Dioxolan-2-ylmethyl-piperidin-4-yl)-3-methyl-1H-pyrazol-4-yl]-N^4-ethyl-5-trifluoromethyl-pyrimidine-2,4-diamine]
Ki [2]: 9.4 nM

CNc1nc(Nc2cn(-c3ccccn3)nc2C)ncc1C(F)(F)F [Example 117, N4-methyl-N2-(3-methyl-1-(pyridin-2-yl)-1H-pyrazol-4-yl)-5-(trifluoromethyl) pyrimidine-2,4-diamine]
Ki [3]: 6.7 nM

CNc1nc(Nc2cnn(-c3ccc(C#N)cc3)c2C)ncc1C(F)(F)F [Example 147, 4-(5-methyl-4-(4-(methylamino)-5-(trifluoromethyl)pyrimidin-2-ylamino)-1H-pyrazol-1-yl)benzonitrile]
Ki [3]: 17 nM

CNc1nc(Nc2cn(C(C)C)nc2C)ncc1Cl [Example 31, 5-Chloro-N^2-(1-isopropyl-3-methyl-1H-pyrazol-4-yl)-N^4-methylpyrimidine-2,4-diamine]
Ki [2]: 12 nM

CCn1ncc(Nc2ncc(C#N)c(OC)n2)c1C [Example 377, 2-(1-ethyl-5-methyl-1H-pyrazol-4-ylamino)-4-methoxypyrimidine-5-carbonitrile]
Ki [4]: 75 nM

CCn1ncc(Nc2ncc(C#N)c(NC)n2)c1C [Example 351, 2-(1-ethyl-5-methyl-1H-pyrazol-4-ylamino)-4-(methylamino) pyrimidine-5-carbonitrile]
Ki [4]: 9.7 nM

CNc1nc(Nc2cnn(-c3ccc(Cl)cc3)c2C)ncc1C#N [Example 369, 2-(1-(4-chlorophenyl)-5-methyl-H-pyrazol-4-ylamino)-4-(methylamino) pyrimidine-5-carbonitrile]
Ki [4]: 2.5 nM

CCNc1nc(Nc2cnn(C3CCN(C)CC3)c2C)ncc1C(F)(F)F [Example 207, N4-ethyl-N2-(5-methyl-1-(1-methylpiperidin-4-yl)-1H-pyrazol-4-yl)-5-(trifluoromethyl) pyrimidine-2,4-diamine]
Ki [3]: 2.6 nM

CNc1nc(Nc2cnn(C3CCN(CCF)CC3)c2C)ncc1C(F)(F)F [Example 284, N2-{1-[1-(2-Fluoro-ethyl)-piperidin-4-yl]-5-methyl-1H-pyrazol-4-yl}-N4-methyl-5-trifluoromethyl-pyrimidine-2,4-diamine]
Ki [3]: 4.2 nM
